Assay results taken from patent US10125150B2, “Crystalline forms of a PI3K inhibitor” (Incyte Corporation, priority 2015, dated 2018).

Tests used:
JAK2 (a.a. 828-1132) = JAK2 (a.a. 828-1132) (Homo sapiens (Human), UniProt O60674); experiment: In vitro JAK kinase assay (Example D), JAK2; assay type: biochemical; conditions: ratio JAK2/JAK1 of IC50s, 1 mM ATP
[1] = target: human JAK1 (a.a. 837-1142) (Homo sapiens, UniProt P23458); experiment: In vitro JAK kinase assay (Example D), JAK1; assay type: biochemical; conditions: 1 mM ATP

Chain of JAK2 (a.a. 828-1132) (O60674 828-1132): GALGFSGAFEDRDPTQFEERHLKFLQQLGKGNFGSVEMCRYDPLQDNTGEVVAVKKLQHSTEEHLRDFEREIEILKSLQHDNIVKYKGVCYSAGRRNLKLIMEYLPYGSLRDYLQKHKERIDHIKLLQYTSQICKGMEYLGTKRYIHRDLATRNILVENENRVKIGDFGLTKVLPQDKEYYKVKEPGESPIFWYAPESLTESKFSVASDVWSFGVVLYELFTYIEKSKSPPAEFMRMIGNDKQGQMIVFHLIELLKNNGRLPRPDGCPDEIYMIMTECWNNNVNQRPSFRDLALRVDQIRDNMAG

A JAK2/JAK1 (JAK2 (a.a. 828-1132)) of over 10 and an IC50 [1] of under 10 nM were found for `N#CCC(CN1CCN(C(=O)c2ccc(C#N)cc2F)CC1)n1ccc(-c2ncnc3[nH]ccc23)c1` (centres unmarked) [Form 6, 4-[(4-{3-cyano-2-[3-(7H-pyrrolo[2,3-d]pyrimidin-4-yl)-1H-pyrrol-1-yl]propyl}piperazin-1-yl)carbonyl]-3-fluorobenzonitrile] in this work.
A JAK2/JAK1 (JAK2 (a.a. 828-1132)) of over 10 and an IC50 [1] of under 100 nM were found for `C[C@@H](O)c1nc2cnc3ccsc3c2n1[C@H]1CC[C@H](CC#N)OC1` [Form 1, ((2R,5S)-5-{2-[(1R)-1-hydroxyethyl]-1H-imidazo[4,5-d]thieno[3,2-b]pyridin-1-yl}tetrahydro-2H-pyran-2-yl)acetonitrile] in this work.
A JAK2/JAK1 (JAK2 (a.a. 828-1132)) of over 10 and an IC50 [1] of under 10 nM were found for `N#CC[C@]1(n2cc(-c3ncnc4[nH]ccc34)cn2)C[C@H](N2CCN(C(=O)c3ccnc(C(F)(F)F)n3)CC2)C1` [Form 10, [trans-1-[4-(7H-pyrrolo[2,3-d]pyrimidin-4-yl)-1H-pyrazol-1-yl]-3-(4-{[2-(trifluoromethyl)pyrimidin-4-yl]carbonyl}piperazin-1-yl)cyclobutyl]acetonitrile] in this work.
A JAK2/JAK1 (JAK2 (a.a. 828-1132)) of over 10 and an IC50 [1] of under 10 nM were found for `C[C@H](O)CNCc1cc(OC2CCN([C@H]3C[C@](CC#N)(n4cc(-c5ncnc6[nH]ccc56)cn4)C3)CC2)nc(C(F)(F)F)c1` [Form 25, {trans-3-(4-([4-({[(2S)-2-hydroxypropyl]amino}methyl)-6-(trifluoromethyl)pyridin-2-yl]oxy}piperidin-1-yl)-1-[4-(7H-pyrrolo[2,3-d]pyrimidin-4-yl)-1H-pyrazol-1-yl]cyclobutyl}acetonitrile] in this work.
A JAK2/JAK1 (JAK2 (a.a. 828-1132)) of over 10 and an IC50 [1] of under 10 nM were found for `N#CC[C@]1(n2cc(-c3ncnc4[nH]ccc34)cn2)C[C@H](N2CCC(Oc3cc(CN4CCC[C@@H]4CO)cc(C(F)(F)F)n3)CC2)C1` [Form 13, {trans-3-(4-{[4-{[(2R)-2-(hydroxymethyl)pyrrolidin-1-yl]methyl}-6-(trifluoromethyl)pyridin-2-yl]oxy}piperidin-1-yl)-1-[4-(7H-pyrrolo[2,3-d]pyrimidin-4-yl)-1H-pyrazol-1-yl]cyclobutyl}acetonitrile] in this work.
A JAK2/JAK1 (JAK2 (a.a. 828-1132)) of over 10 and an IC50 [1] of under 10 nM were found for `C[C@@H](O)CNCc1cc(OC2CCN([C@H]3C[C@](CC#N)(n4cc(-c5ncnc6[nH]ccc56)cn4)C3)CC2)nc(C(F)(F)F)c1` [Form 24, {trans-3-(4-{[4-({[(2R)-2-hydroxypropyl]amino}methyl)-6-(trifluoromethyl)pyridin-2-yl]oxy}piperidin-1-yl)-1-[4-(7H-pyrrolo[2,3-d]pyrimidin-4-yl)-1H-pyrazol-1-yl]cyclobutyl}acetonitrile] in this work.
A JAK2/JAK1 (JAK2 (a.a. 828-1132)) of over 10 and an IC50 [1] of under 10 nM were found for `N#CCC(CN1CCN(C(=O)c2ccc(C#N)cc2F)CC1)n1cc(-c2ncnc3[nH]ccc23)cn1` (centres unmarked) [Form 5, 4-[(4-{3-cyano-2-[4-(7H-pyrrolo[2,3-d]pyrimidin-4-yl)-1H-pyrazol-1-yl]propyl}piperazin-1-yl)carbonyl]-3-fluorobenzonitrile] in this work.
A JAK2/JAK1 (JAK2 (a.a. 828-1132)) of over 10 and an IC50 [1] of under 10 nM were found for `N#CCC1(n2cc(-c3ncnc4[nH]ccc34)cn2)CN([C@H]2CC[C@@H](Oc3cc(CN4CC[C@H](O)C4)cc(C(F)(F)F)n3)CC2)C1` [Form 22, {1-(cis-4-{[4-{[(3S)-3-hydroxypyrrolidin-1-yl]methyl}-6-(trifluoromethyl)pyridin-2-yl]oxy}cyclohexyl)-3-[4-(7H-pyrrolo[2,3-d]pyrimidin-4-yl)-1H-pyrazol-1-yl]azetidin-3-yl}acetonitrile] in this work.
A JAK2/JAK1 (JAK2 (a.a. 828-1132)) of over 10 and an IC50 [1] of under 10 nM were found for `N#CCC1(n2cc(-c3ncnc4[nH]ccc34)cn2)CN(C2CCN(C(=O)Nc3ccc(F)cc3C(F)(F)F)CC2)C1` [Form 8, 4-{3-(Cyanomethyl)-3-[4-(7H-pyrrolo[2,3-d]pyrimidin-4-yl)-1H-pyrazol-1-yl]azetidin-1-yl}-N-[4-fluoro-2-(trifluoromethyl)phenyl]piperidine-1-carboxamide] in this work.
A JAK2/JAK1 (JAK2 (a.a. 828-1132)) of over 10 and an IC50 [1] of under 10 nM were found for `CC(C)(O)c1cc(O[C@H]2CC[C@@H](N3CC(CC#N)(n4cc(-c5ncnc6[nH]ccc56)cn4)C3)CC2)nc(C(F)(F)F)c1` [Form 20, {1-(cis-4-{[4-(1-hydroxy-1-methylethyl)-6-(trifluoromethyl)pyridin-2-yl]oxy}cyclohexyl)-3-[4-(7H-pyrrolo[2,3-d]pyrimidin-4-yl)-1H-pyrazol-1-yl]azetidin-3-yl}acetonitrile] in this work.
A JAK2/JAK1 (JAK2 (a.a. 828-1132)) of over 10 and an IC50 [1] of under 10 nM were found for `C[C@H](NC(=O)c1cc(F)c(N2CC(CC#N)(n3cc(-c4ncnc5[nH]ccc45)cn3)C2)cc1F)C(F)(F)F` [Form 16, 4-{3-(cyanomethyl)-3-[4-(7H-pyrrolo[2,3-d]pyrimidin-4-yl)-1H-pyrazol-1-yl]azetidin-1-yl}-2,5-difluoro-N-[(1S)-2,2,2-trifluoro-1-methylethyl]benzamide] in this work.
A JAK2/JAK1 (JAK2 (a.a. 828-1132)) of over 10 and an IC50 [1] of under 10 nM were found for `CCNCc1cc(O[C@H]2CC[C@@H](N3CC(CC#N)(n4cc(-c5ncnc6[nH]ccc56)cn4)C3)CC2)nc(C(F)(F)F)c1` [Form 19, {1-(cis-4-{[4-[(ethylamino)methyl]-6-(trifluoromethyl)pyridin-2-yl]oxy}cyclohexyl)-3-[4-(7H-pyrrolo[2,3-d]pyrimidin-4-yl)-1H-pyrazol-1-yl]azetidin-3-yl}acetonitrile] in this work.
A JAK2/JAK1 (JAK2 (a.a. 828-1132)) of over 10 and an IC50 [1] of under 10 nM were found for `C[C@@H](CO)NCc1cc(OC2CCN([C@H]3C[C@](CC#N)(n4cc(-c5ncnc6[nH]ccc56)cn4)C3)CC2)nc(C(F)(F)F)c1` [Form 23, {trans-3-(4-{[4-({[(1S)-2-hydroxy-1-methylethyl]amino}methyl)-6-(trifluoromethyl)pyridin-2-yl]oxy}piperidin-1-yl)-1-[4-(7H-pyrrolo[2,3-d]pyrimidin-4-yl)-1H-pyrazol-1-yl]cyclobutyl}acetonitrile] in this work.
A JAK2/JAK1 (JAK2 (a.a. 828-1132)) of over 10 and an IC50 [1] of under 10 nM were found for `N#CC[C@]1(n2cc(-c3ncnc4[nH]ccc34)cn2)C[C@H](N2CCC(Oc3cc(CN4CCC[C@H]4CO)cc(C(F)(F)F)n3)CC2)C1` [Form 12, {trans-3-(4-{[4-{[(2S)-2-(hydroxymethyl)pyrrolidin-1-yl]methyl}-6-(trifluoromethyl)pyridin-2-yl]oxy}piperidin-1-yl)-1-[4-(7H-pyrrolo[2,3-d]pyrimidin-4-yl)-1H-pyrazol-1-yl]cyclobutyl}acetonitrile] in this work.
A JAK2/JAK1 (JAK2 (a.a. 828-1132)) of over 10 and an IC50 [1] of under 10 nM were found for `N#CC[C@]1(n2cc(-c3ncnc4[nH]ccc34)cn2)C[C@H](N2CCC(Oc3cc(CCO)cc(C(F)(F)F)n3)CC2)C1` [Form 26, {trans-3-(4-{[4-(2-hydroxyethyl)-6-(trifluoromethyl)pyridin-2-yl]oxy}piperidin-1-yl)-1-[4-(7H-pyrrolo[2,3-d]pyrimidin-4-yl)-1H-pyrazol-1-yl]cyclobutyl}acetonitrile] in this work.
A JAK2/JAK1 (JAK2 (a.a. 828-1132)) of over 10 and an IC50 [1] of under 10 nM were found for `N#CCC(C1CCN(c2cccc(Cl)n2)C1)n1cc(-c2ncnc3[nH]ccc23)cn1` (single isomer, unassigned) [Form 3, 3-[1-(6-chloropyridin-2-yl)pyrrolidin-3-yl]-3-[4-(7H-pyrrolo[2,3-d]pyrimidin-4-yl)-1H-pyrazol-1-yl]propanenitrile] in this work.
A JAK2/JAK1 (JAK2 (a.a. 828-1132)) of over 10 and an IC50 [1] of under 10 nM were found for `N#CCC1(n2cc(-c3ncnc4[nH]ccc34)cn2)CN(C2CCN(C(=O)c3ccnc(C(F)(F)F)c3F)CC2)C1` [Form 7, {1-{1-[3-Fluoro-2-(trifluoromethyl)isonicotinoyl]piperidin-4-yl}-3-[4-(7H-pyrrolo[2,3-d]pyrimidin-4-yl)-1H-pyrazol-1-yl]azetidin-3-yl}acetonitrile] in this work.
A JAK2/JAK1 (JAK2 (a.a. 828-1132)) of over 10 and an IC50 [1] of under 10 nM were found for `N#CCC1(n2cc(-c3ncnc4[nH]ccc34)cn2)CN(C2CCN(C(=O)c3ccnc(C(F)(F)F)n3)CC2)C1` [Form 9, [3-[4-(7H-pyrrolo[2,3-d]pyrimidin-4-yl)-1H-pyrazol-1-yl]-1-(1-{[2-(trifluoromethyl)pyrimidin-4-yl]carbonyl}piperidin-4-yl)azetidin-3-yl]acetonitrile] in this work.
A JAK2/JAK1 (JAK2 (a.a. 828-1132)) of over 10 and an IC50 [1] of under 10 nM were found for `N#CCC1(n2cc(-c3ncnc4[nH]ccc34)cn2)CN([C@H]2CC[C@@H](Oc3cc(CN4CC[C@@H](O)C4)cc(C(F)(F)F)n3)CC2)C1` [Form 21, {1-(cis-4-{[4-{[(3R)-3-hydroxypyrrolidin-1-yl]methyl}-6-(trifluoromethyl)pyridin-2-yl]oxy}cyclohexyl)-3-[4-(7H-pyrrolo[2,3-d]pyrimidin-4-yl)-1H-pyrazol-1-yl]azetidin-3-yl}acetonitrile] in this work.
A JAK2/JAK1 (JAK2 (a.a. 828-1132)) of over 10 and an IC50 [1] of under 10 nM were found for `N#CC[C@]1(n2cc(-c3ncnc4[nH]ccc34)cn2)C[C@H](N2CCC(Oc3cc(CN4CC(O)C4)cc(C(F)(F)F)n3)CC2)C1` [Form 11, {trans-3-(4-{[4-[(3-hydroxyazetidin-1-yl)methyl]-6-(trifluoromethyl)pyridin-2-yl]oxy}piperidin-1-yl)-1-[4-(7H-pyrrolo[2,3-d]pyrimidin-4-yl)-1H-pyrazol-1-yl]cyclobutyl}acetonitrile] in this work.
A JAK2/JAK1 (JAK2 (a.a. 828-1132)) of over 10 and an IC50 [1] of under 10 nM were found for `N#CCC(C1CCN(c2nc3cccnc3o2)C1)n1cc(-c2ncnc3[nH]ccc23)cn1` (centres unmarked) [Form 4, 3-(1-[1,3]oxazolo[5,4-b]pyridin-2-ylpyrrolidin-3-yl)-3-[4-(7H-pyrrolo[2,3-d]pyrimidin-4-yl)-1H-pyrazol-1-yl]propanenitrile] in this work.
A JAK2/JAK1 (JAK2 (a.a. 828-1132)) of over 10 and an IC50 [1] of under 10 nM were found for `N#CCC1(n2cc(-c3ncnc4[nH]ccc34)cn2)CN([C@H]2CC[C@@H](Oc3cc(CCO)nc(C(F)(F)F)n3)CC2)C1` [Form 18, {1-(cis-4-{[6-(2-hydroxyethyl)-2-(trifluoromethyl)pyrimidin-4-yl]oxy}cyclohexyl)-3-[4-(7H-pyrrolo[2,3-d]pyrimidin-4-yl)-1H-pyrazol-1-yl]azetidin-3-yl}acetonitrile] in this work.
